Tested on: patients with resected stages II and III carcinoma of the colon
Test: NSABP C-08 clinical trial: bevacizumab added to mFOLFOX6 as adjuvant therapy
Type: in vivo
Source text: This example concerns analysis of results obtained from colorectal cancer subjects treated in the National Surgical Adjuvant Breast and Bowel Project (NSABP C-08) clinical trial. The primary aim of the study was to determine the clinical benefit of adding bevacizumab to standard chemotherapy for treating colorectal cancer, as measured by disease-free survival (DFS). A secondary goal was to determine if there was clinical benefit in prolonging overall survival. The standard chemotherapy used in this trial was a combination of leucovorin, 5-fluorouracil and oxaliplatin. This trial evaluated the efficacy of bevacizumab (AVASTIN®) as adjuvant therapy for patients with resected stages II and III carcinoma of the colon.
In the NSABP C-08 trial, the following treatment protocol was used:
Arm A/Group 1: modified FOLFOX6 (mFOLFOX6: oxaliplatin (85 mg/m^2) with concurrent leucovorin (400 mg/m^2) and 5-FU (400 mg/m^2 IV bolus) on Day 1 and 5-FU (2400 mg/m^2) over 46 hours on Day 1 and Day 2) q 14 days for 12 cycles (6 months);
Arm B/Group 2: modified FOLFOX6 q 14 days for 12 cycles (6 months) plus bevacizumab administered before oxaliplatin on Day 1 of each chemotherapy cycle (5 mg/kg IV) q 14 days for 1 year.
The primary endpoint of this trial was duration of disease free survival (DFS). […]
2,710 patients were accrued to the study (1,356 to the contol arm and 1,354 to the experimental arm). 18 patients on the control arm and 20 patients on the experimental arm were not evaluated for efficacy due to no follow-up or positive surgical margins. […]
Time to an event was measured from randomization. All p-values, other than the primary endpoint, were evaluated as significant at the 0.05 level two-sided. […] Hazard ratios (HR) were calculated from Cox models and p-values from time to event were from the log rank test. […] Smooth estimates of the underlying hazard functions were calculated by the method of Muller and Wang (Biometrics 1994 50:61-76). Smooth estimates of the ratio of the underlying hazards were calculated by the method of Gilbert et al. (Biometrics 2002 58:773-80).

## Bevacizumab: recombinant humanized anti-VEGF monoclonal antibody; human IgG1 framework with CDRs from murine antibody A.4.6.1
DFS, 1.25 years after initiation of treatment, vs mFOLFOX6 alone, 95% CI 0.48-0.78, p <0.0001
  HR: 0.61
Added to chemotherapy vs chemotherapy alone
  toxicities or adverse effects (in words): not associated with any increased toxicities or adverse effects
Added to chemotherapy vs chemotherapy alone, during the first year (active treatment phase)
  effect on DFS (in words): significantly increased DFS

Reference: patent publication US20100266589A1, “ADJUVANT CANCER THERAPY” (priority 2009, published 2010)
